In US20250120967A1, “TYROSINE KINASES INHIBITORS AND USES THEREOF” (GREAT NOVEL THERAPEUTICS BIOTECH & MEDICALS CORPORATION, priority 2023, published 2025):
Read-outs that look alike come from different tables or passages of the source.

Legend:
Test in all cases: Tyrosine kinase inhibition assay
Type in all cases: biochemical
DDR1 = DDR1 (Homo sapiens, UniProt Q08345); details: single concentration 1.0 μM, read-out: percent inhibition
In short: (§1)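 Values are percent inhibition at 1.0 μM compound, with inhibition above 80% defined as a hit. Peptide substrate phosphorylation was assessed by Z′-LYTE at apparent-Km ATP in HEPES pH 7.5 buffer containing MgCl2, EGTA and BRIJ-35.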

EPHA1 = target: T1, EPHA1 (Homo sapiens, UniProt P21709); details: single concentration 1.0 μM, read-out: percent inhibition
T1 sequence (P21709 26-976): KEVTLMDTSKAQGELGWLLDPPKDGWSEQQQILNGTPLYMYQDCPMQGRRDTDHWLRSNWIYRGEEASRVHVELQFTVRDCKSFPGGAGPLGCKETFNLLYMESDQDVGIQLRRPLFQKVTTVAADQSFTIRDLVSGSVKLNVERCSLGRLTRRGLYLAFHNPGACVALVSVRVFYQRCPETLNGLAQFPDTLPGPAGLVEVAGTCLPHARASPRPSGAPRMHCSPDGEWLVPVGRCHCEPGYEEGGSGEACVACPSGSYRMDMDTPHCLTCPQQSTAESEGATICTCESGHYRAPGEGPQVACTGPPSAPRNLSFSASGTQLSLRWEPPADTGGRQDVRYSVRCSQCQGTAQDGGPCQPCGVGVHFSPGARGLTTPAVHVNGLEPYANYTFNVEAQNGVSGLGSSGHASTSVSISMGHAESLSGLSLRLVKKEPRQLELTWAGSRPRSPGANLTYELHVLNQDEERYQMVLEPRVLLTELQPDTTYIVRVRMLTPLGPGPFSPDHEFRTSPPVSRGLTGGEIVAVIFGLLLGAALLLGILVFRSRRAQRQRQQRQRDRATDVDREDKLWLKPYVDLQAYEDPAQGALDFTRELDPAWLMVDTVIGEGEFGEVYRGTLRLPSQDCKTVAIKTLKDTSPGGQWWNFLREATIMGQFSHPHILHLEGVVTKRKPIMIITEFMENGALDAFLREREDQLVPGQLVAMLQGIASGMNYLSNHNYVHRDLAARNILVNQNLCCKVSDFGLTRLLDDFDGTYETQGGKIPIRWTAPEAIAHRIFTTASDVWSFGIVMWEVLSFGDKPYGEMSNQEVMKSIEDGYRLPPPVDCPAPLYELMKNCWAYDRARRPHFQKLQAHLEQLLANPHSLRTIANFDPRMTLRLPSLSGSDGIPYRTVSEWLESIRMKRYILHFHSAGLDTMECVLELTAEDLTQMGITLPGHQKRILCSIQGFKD
In short: as §1

BLK = BLK (Homo sapiens, UniProt P51451); details: single concentration 1.0 μM, read-out: percent inhibition
In short: as §1

INSR = INSR (Homo sapiens, UniProt P06213); details: single concentration 1.0 μM, read-out: percent inhibition
In short: as §1

CSK = CSK (Homo sapiens, UniProt P41240); details: single concentration 1.0 μM, read-out: percent inhibition
In short: as §1

LTK (TYK1) = LTK (TYK1) (Homo sapiens, UniProt P29376); details: single concentration 1.0 μM, read-out: percent inhibition
In short: as §1

[1] = target: PIK3CA/PIK3R1 (p110 alpha/p85 alpha) (Homo sapiens, UniProt P42336); details: read-out: percent inhibition
In short: as §1

AKT2 (PKB beta) = AKT2 (PKB beta) (Homo sapiens, UniProt P31751); details: single concentration 1.0 μM, read-out: percent inhibition
In short: as §1

MAPK8 (JNK1) = MAPK8 (JNK1) (Homo sapiens, UniProt P45983); details: single concentration 1.0 μM, read-out: percent inhibition
In short: as §1

YES1 = YES1 (Homo sapiens, UniProt P07947); details: single concentration 1.0 μM, read-out: percent inhibition
In short: as §1

MAPK10 (JNK3) = MAPK10 (JNK3) (Homo sapiens, UniProt P53779); details: single concentration 1.0 μM, read-out: percent inhibition
In short: as §1

PIK3CG (p110 gamma) = PIK3CG (p110 gamma) (Homo sapiens, UniProt P48736); details: single concentration 1.0 μM, read-out: percent inhibition
In short: as §1

TNK2 (ACK) = TNK2 (ACK) (Homo sapiens, UniProt Q07912); details: single concentration 1.0 μM, read-out: percent inhibition
In short: as §1

EPHA7 = EPHA7 (Homo sapiens, UniProt Q15375); details: single concentration 1.0 μM, read-out: percent inhibition
In short: as §1

ABL2 (Arg) = ABL2 (Arg) (Homo sapiens, UniProt P42684); details: single concentration 1.0 μM, read-out: percent inhibition
In short: as §1

JAK1 = JAK1 (Homo sapiens, UniProt P23458); details: single concentration 1.0 μM, read-out: percent inhibition
In short: as §1

PEAK1 = PEAK1 (Homo sapiens, UniProt Q9H792); details: single concentration 1.0 μM, read-out: percent inhibition
In short: as §1

TYK2 = TYK2 (Homo sapiens, UniProt P29597); details: single concentration 1.0 μM, read-out: percent inhibition
In short: as §1

FYN = details: single concentration 1.0 μM
In short: as §1

[2] = PIK3CA/PIK3R1 (p110 alpha/p85 alpha), single concentration 1.0 μM

MAPK10 (JNK3), sequence (P53779 whole entry): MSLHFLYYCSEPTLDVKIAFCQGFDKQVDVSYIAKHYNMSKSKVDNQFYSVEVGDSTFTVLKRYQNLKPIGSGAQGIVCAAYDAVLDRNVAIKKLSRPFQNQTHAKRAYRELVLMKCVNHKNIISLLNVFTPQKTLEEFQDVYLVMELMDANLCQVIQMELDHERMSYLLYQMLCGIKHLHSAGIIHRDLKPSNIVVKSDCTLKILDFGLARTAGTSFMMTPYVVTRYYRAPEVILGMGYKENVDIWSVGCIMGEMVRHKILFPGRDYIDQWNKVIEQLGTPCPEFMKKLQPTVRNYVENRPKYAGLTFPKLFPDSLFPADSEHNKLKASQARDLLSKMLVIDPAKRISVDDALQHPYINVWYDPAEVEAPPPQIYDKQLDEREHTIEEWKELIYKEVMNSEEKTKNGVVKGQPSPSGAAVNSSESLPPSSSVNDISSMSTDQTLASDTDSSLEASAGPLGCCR
EPHA7, sequence (Q15375 28-998): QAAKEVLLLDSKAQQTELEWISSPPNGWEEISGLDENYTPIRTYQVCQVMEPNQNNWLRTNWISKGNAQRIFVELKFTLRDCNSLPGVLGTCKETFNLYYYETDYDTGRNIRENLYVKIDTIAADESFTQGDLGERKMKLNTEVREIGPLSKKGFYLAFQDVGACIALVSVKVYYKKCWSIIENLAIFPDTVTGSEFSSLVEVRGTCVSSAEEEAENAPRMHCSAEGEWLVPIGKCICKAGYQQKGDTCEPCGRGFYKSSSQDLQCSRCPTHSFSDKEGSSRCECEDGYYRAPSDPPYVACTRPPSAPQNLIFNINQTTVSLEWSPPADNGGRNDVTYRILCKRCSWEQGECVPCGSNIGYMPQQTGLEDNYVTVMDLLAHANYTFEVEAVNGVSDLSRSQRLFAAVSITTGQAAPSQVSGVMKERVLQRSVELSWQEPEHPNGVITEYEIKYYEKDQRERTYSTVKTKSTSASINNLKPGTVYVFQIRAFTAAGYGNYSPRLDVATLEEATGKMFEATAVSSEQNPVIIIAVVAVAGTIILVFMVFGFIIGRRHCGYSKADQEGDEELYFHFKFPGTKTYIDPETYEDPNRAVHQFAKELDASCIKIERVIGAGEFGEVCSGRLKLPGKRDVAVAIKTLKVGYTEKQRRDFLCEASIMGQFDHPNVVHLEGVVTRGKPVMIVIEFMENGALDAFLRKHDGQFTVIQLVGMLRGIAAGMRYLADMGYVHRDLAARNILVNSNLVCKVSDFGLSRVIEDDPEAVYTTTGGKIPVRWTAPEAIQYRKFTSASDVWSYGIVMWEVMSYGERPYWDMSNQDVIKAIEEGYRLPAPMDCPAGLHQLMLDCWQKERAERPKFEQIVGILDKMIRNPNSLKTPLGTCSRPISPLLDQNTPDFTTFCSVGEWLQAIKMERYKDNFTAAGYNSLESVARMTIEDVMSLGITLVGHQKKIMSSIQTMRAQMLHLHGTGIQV
YES1, sequence (P07947 whole entry): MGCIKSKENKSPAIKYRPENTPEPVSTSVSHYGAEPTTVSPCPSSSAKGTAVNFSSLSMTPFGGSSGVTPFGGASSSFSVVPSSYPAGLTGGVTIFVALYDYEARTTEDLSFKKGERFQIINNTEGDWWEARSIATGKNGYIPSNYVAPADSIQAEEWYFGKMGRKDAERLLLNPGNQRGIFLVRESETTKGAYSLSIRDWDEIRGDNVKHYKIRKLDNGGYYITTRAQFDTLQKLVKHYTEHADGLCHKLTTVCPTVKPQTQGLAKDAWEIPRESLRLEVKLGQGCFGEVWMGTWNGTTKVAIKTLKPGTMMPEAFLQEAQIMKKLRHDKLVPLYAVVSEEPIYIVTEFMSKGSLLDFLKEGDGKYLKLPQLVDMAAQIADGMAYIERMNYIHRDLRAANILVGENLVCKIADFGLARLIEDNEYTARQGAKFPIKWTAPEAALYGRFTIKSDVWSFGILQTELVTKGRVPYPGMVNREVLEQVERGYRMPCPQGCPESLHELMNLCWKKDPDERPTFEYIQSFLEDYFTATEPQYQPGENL
INSR, sequence (P06213 28-1382): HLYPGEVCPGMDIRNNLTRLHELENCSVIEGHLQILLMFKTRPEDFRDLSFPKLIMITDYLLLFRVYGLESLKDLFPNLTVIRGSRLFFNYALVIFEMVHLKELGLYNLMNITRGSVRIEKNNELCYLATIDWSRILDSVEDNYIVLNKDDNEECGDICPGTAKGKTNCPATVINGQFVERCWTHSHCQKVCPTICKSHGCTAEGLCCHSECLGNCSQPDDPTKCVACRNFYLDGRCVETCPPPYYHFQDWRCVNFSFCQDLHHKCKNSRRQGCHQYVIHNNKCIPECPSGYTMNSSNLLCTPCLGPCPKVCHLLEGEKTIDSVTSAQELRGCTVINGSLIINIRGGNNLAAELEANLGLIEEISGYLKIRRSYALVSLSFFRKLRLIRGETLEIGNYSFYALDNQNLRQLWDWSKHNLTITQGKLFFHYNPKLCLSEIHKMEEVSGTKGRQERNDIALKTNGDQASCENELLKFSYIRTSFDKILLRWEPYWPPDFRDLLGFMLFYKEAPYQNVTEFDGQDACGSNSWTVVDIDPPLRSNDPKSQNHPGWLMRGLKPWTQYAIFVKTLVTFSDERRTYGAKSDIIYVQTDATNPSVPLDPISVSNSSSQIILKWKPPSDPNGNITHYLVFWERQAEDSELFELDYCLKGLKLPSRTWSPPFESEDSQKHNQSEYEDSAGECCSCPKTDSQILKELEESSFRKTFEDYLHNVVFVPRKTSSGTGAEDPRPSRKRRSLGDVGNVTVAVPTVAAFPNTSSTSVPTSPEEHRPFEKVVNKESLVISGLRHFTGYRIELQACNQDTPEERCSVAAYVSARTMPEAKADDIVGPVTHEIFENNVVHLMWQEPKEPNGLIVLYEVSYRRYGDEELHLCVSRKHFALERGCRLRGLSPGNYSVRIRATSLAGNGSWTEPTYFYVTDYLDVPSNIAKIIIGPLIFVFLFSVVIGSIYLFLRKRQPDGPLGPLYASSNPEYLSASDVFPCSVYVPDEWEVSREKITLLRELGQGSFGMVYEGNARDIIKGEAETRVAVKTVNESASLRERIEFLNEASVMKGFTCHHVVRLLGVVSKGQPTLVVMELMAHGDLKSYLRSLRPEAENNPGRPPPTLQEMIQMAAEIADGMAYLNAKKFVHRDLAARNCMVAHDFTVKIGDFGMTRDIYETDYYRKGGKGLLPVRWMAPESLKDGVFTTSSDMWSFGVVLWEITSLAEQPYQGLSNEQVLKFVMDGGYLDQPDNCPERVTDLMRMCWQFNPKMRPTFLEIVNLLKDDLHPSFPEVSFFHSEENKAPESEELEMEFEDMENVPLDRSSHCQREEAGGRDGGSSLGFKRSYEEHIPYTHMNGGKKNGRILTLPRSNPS
AKT2 (PKB beta), sequence (P31751 whole entry): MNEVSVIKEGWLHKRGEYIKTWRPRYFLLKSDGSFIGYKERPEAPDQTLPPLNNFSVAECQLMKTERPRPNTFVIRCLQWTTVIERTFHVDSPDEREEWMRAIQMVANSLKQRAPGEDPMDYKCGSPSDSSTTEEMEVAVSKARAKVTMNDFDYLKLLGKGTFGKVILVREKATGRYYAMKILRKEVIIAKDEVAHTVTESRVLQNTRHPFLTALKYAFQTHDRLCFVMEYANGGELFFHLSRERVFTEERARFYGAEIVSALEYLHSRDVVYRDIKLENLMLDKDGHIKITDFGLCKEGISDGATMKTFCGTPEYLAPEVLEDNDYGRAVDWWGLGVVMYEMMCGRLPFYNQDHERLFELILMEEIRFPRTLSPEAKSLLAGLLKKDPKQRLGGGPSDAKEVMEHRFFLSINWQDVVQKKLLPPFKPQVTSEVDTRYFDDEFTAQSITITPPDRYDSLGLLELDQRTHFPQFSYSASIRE
LTK (TYK1), sequence (P29376 17-864): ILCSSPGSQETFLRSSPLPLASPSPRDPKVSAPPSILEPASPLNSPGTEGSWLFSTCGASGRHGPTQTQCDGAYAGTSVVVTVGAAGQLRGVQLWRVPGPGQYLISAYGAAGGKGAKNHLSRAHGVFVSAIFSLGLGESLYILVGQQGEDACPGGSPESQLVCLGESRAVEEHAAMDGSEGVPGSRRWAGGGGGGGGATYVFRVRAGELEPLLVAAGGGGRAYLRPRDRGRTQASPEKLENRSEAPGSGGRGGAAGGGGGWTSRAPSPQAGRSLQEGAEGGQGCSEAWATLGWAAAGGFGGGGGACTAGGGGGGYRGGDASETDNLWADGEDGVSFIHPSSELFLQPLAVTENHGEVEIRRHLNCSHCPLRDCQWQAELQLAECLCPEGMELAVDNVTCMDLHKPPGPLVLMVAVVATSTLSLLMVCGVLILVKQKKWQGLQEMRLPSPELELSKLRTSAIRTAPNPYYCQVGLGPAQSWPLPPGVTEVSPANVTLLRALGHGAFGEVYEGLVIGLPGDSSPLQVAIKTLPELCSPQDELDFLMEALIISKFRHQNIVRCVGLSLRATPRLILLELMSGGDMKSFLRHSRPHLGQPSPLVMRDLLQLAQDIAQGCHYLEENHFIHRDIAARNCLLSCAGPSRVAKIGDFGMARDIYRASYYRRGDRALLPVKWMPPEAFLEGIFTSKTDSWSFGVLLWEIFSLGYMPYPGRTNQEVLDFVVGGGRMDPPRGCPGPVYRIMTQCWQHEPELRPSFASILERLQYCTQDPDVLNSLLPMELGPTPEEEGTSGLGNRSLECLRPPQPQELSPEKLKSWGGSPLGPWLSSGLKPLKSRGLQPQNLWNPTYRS

| Compound | inhibition at 1 µM (DDR1) | inhibition at 1 µM (EPHA1) | inhibition at 1 µM (BLK) | inhibition at 1 µM (INSR) | inhibition at 1 µM (CSK) | inhibition at 1 µM (LTK (TYK1)) | inhibition at 1 µM [1] | inhibition at 1 µM (AKT2 (PKB beta)) | inhibition at 1 µM (MAPK8 (JNK1)) | inhibition at 1 µM (YES1) | inhibition at 1 µM (MAPK10 (JNK3)) | inhibition at 1 µM (PIK3CG (p110 gamma)) | inhibition at 1 µM (TNK2 (ACK)) | inhibition at 1 µM (EPHA7) | inhibition at 1 µM (ABL2 (Arg)) | inhibition at 1 µM (JAK1) | inhibition at 1 µM (PEAK1) | inhibition at 1 µM (TYK2) | inhibition at 1 µM [1, 2] | percent inhibition (FYN) |
| --- | --- | --- | --- | --- | --- | --- | --- | --- | --- | --- | --- | --- | --- | --- | --- | --- | --- | --- | --- | --- |
| COc1cc2nccc(Oc3ccc(NC(=O)C4(C(=O)Nc5ccc(F)cc5)CC4)cc3)c2cc1OC [Cabozantinib, reference compound] | 100% | 74% | 83% | 16% | 49% | 20% | 0% | 17% | -2% | 63% | 3% | 14% | 61% | 106% | 35% | 0% | 85% | 9% | – | – |
| COc1cc2nccc(Oc3ccc(NC(=O)C4(NC(=O)c5ccc(F)cc5)CC4)cc3F)c2cc1OC [Cbo-02, N-(1-((4-((6,7-diMethoxyquinolin-4-yl)oxy)-3-fluorophenyl)carbamoyl)cyclopropyl)-4-fluorobenzamide] | 51% | 29% | 61% | 30% | 87% | 50% | – | 10% | 5% | 34% | 4% | 4% | 63% | 84% | 12% | 1% | 38% | 7% | -6% | 16% |
| COc1cc2nccc(Oc3ccc(NC(=O)C4(NC(=O)c5ccc(F)cc5)CC4)cc3F)c2cc1Oc1ccc(N)cc1F [Cbo-10] | 50% | 84% | 80% | 69% | 97% | 69% | – | 5% | 32% | 64% | 8% | 9% | 95% | 98% | 17% | 2% | 55% | 9% | 10% | 35% |
| COc1cc2nccc(Oc3ccc(NC(=O)C4(NC(=O)c5ccc(F)cc5)CC4)cc3F)c2cc1Oc1c(F)cc(N)cc1F [Cbo-14] | 53% | 80% | 80% | 70% | 97% | 79% | – | 10% | 41% | 63% | 4% | 6% | 96% | 101% | 18% | 1% | 64% | 16% | 3% | 48% |
| COc1cc2nccc(Oc3ccc(NC(=O)C4(C(=O)Nc5ccc(F)cc5)CC4)cc3F)c2cc1Oc1ccc(N)cc1F [Cbo-23] | 92% | 96% | 93% | 54% | 66% | 55% | – | 0% | -2% | 94% | -3% | -7% | 89% | 100% | 54% | 4% | – | 7% | 4% | 51% |
